# According to ChEMBL document CHEMBL1157344, “Botcinins E and F and Botcinolide from Botrytis cinerea and structural revision of botcinolides” (2006):
# Test system: Pyricularia grisea
# Test: Antifungal activity against Magnaporthe grisea
# Assay type: functional
row,SMILES,MIC
1,CCCC[C@H](O)/C=C/C(=O)O[C@@H]1[C@@H](C)[C@@H]2OC(=O)C(C)=C[C@@]2(C)O[C@H]1C [BOTCININ D],12.5 µM
2,CCCC[C@H](O)/C=C/C(=O)O[C@@H]1[C@@H](C)[C@H](O)[C@@](C)([C@@H](O)[C@@H](C)C(=O)O)O[C@H]1C [BOTCINIC ACID],100 µM
3,CCCC[C@H](O)/C=C/C(=O)O[C@@H]1[C@@H](C)[C@@H]2OC(=O)[C@@H](C)[C@H](O)[C@@]2(C)O[C@H]1C [BOTCININ F],100 µM
4,CCCC[C@H](O)/C=C/C(=O)O[C@@H]1[C@@H](C)[C@@H]2OC(=O)[C@H](C)[C@H](O)[C@@]2(C)O[C@H]1C [3-O-DEACETYLBOTCININ A],100 µM
5,CCCCCC[C@H](O)/C=C/C(=O)O[C@@H]1[C@@H](C)[C@@H]2OC(=O)[C@H](C)[C@H](OC(C)=O)[C@@]2(C)O[C@H]1C [BOTCININ B],12.5 µM
